Species on record: Rattus norvegicus
Assay: Open TG-GATES - Regimen: Single
Format: toxicity, organism-based, Sprague-Dawley
Set-up: regimen Single, gender Male, age 6 weeks
Conditions: in vivo, po, 24 h, route gavage; for Bas / Eos / Hb / Ht / Lym / MCH / MCHC / MCV / Mono / Neu / Plat / RBC / Ret / WBC: tissue Blood; for KIDNEY_L / KIDNEY_R / KIDNEY_TOTAL: tissue Kidney; for LIVER: tissue Liver; for A/G / ALP / ALT / AST / BUN / CRE / Ca / Cl / DBIL / GLC / IP / K / LDH / Na / PL / RALB / TBIL / TC / TG / TP / gamma-GTP: tissue Plasma

O=NN1CCOCC1 [N-NITROSOMORPHOLINE]
TERMINAL_BW (0 mg/kg, dose level Control): 228.1 g
Bas (0 mg/kg, dose level Control): 0%
Eos (0 mg/kg, dose level Control): 0.6%
Hb (0 mg/kg, dose level Control): 12.5 g/dL
Ht (0 mg/kg, dose level Control): 38.4%
Lym (0 mg/kg, dose level Control): 80%
MCH (0 mg/kg, dose level Control): 20.2 pg
MCHC (0 mg/kg, dose level Control): 32.5%
MCV (0 mg/kg, dose level Control): 62.2 fL
Mono (0 mg/kg, dose level Control): 2.2%
Neu (0 mg/kg, dose level Control): 16.4%
Plat (0 mg/kg, dose level Control): 122.3 x10_4/uL
RBC (0 mg/kg, dose level Control): 619.4 x10_4/ul
Ret (0 mg/kg, dose level Control): 8%
WBC (0 mg/kg, dose level Control): 73.5 x10_2/uL
KIDNEY_L (0 mg/kg, dose level Control): 1 g
KIDNEY_R (0 mg/kg, dose level Control): 1 g
KIDNEY_TOTAL (0 mg/kg, dose level Control): 2.1 g
LIVER (0 mg/kg, dose level Control): 10.8 g
A/G (0 mg/kg, dose level Control): 1
ALP (0 mg/kg, dose level Control): 1437.2 IU/L
ALT (0 mg/kg, dose level Control): 38.6 IU/L
AST (0 mg/kg, dose level Control): 65.2 IU/L
BUN (0 mg/kg, dose level Control): 15.9 mg/dL
CRE (0 mg/kg, dose level Control): 0.2 mg/dL
Ca (0 mg/kg, dose level Control): 10.8 mg/dL
Cl (0 mg/kg, dose level Control): 103.3 meq/L
DBIL (0 mg/kg, dose level Control): 0 mg/dL
GLC (0 mg/kg, dose level Control): 188 mg/dL
IP (0 mg/kg, dose level Control): 6.6 mg/dL
K (0 mg/kg, dose level Control): 4.4 meq/L
LDH (0 mg/kg, dose level Control): 152.8 IU/L
Na (0 mg/kg, dose level Control): 141.3 meq/L
PL (0 mg/kg, dose level Control): 162.4 mg/dL
RALB (0 mg/kg, dose level Control): 2.9 g/dL
TBIL (0 mg/kg, dose level Control): 0.006 mg/dL
TC (0 mg/kg, dose level Control): 81.8 mg/dL
TG (0 mg/kg, dose level Control): 144.6 mg/dL
TP (0 mg/kg, dose level Control): 5.7 g/dL
gamma-GTP (0 mg/kg, dose level Control): 1 IU/L
TERMINAL_BW (100 mg/kg, dose level Low): 215.1 g
Bas (100 mg/kg, dose level Low): 0%
Eos (100 mg/kg, dose level Low): 0.4%
Hb (100 mg/kg, dose level Low): 13.6 g/dL
Ht (100 mg/kg, dose level Low): 41.7%
Lym (100 mg/kg, dose level Low): 66.4%
MCH (100 mg/kg, dose level Low): 20.4 pg
MCHC (100 mg/kg, dose level Low): 32.7%
MCV (100 mg/kg, dose level Low): 62.4 fL
Mono (100 mg/kg, dose level Low): 3.8%
Neu (100 mg/kg, dose level Low): 27.8%
Plat (100 mg/kg, dose level Low): 110.9 x10_4/uL
RBC (100 mg/kg, dose level Low): 669.4 x10_4/ul
Ret (100 mg/kg, dose level Low): 7.6%
WBC (100 mg/kg, dose level Low): 88.5 x10_2/uL
KIDNEY_L (100 mg/kg, dose level Low): 1 g
KIDNEY_R (100 mg/kg, dose level Low): 1 g
KIDNEY_TOTAL (100 mg/kg, dose level Low): 2 g
LIVER (100 mg/kg, dose level Low): 9.2 g
A/G (100 mg/kg, dose level Low): 1.1
ALP (100 mg/kg, dose level Low): 1723.6 IU/L
ALT (100 mg/kg, dose level Low): 134.6 IU/L
AST (100 mg/kg, dose level Low): 347.6 IU/L
BUN (100 mg/kg, dose level Low): 18.8 mg/dL
CRE (100 mg/kg, dose level Low): 0.2 mg/dL
Ca (100 mg/kg, dose level Low): 10.8 mg/dL
Cl (100 mg/kg, dose level Low): 102 meq/L
DBIL (100 mg/kg, dose level Low): 0.046 mg/dL
GLC (100 mg/kg, dose level Low): 164.2 mg/dL
IP (100 mg/kg, dose level Low): 8 mg/dL
K (100 mg/kg, dose level Low): 4.3 meq/L
LDH (100 mg/kg, dose level Low): 883.2 IU/L
Na (100 mg/kg, dose level Low): 140.8 meq/L
PL (100 mg/kg, dose level Low): 141.4 mg/dL
RALB (100 mg/kg, dose level Low): 2.8 g/dL
TBIL (100 mg/kg, dose level Low): 0.084 mg/dL
TC (100 mg/kg, dose level Low): 73.4 mg/dL
TG (100 mg/kg, dose level Low): 34.1 mg/dL
TP (100 mg/kg, dose level Low): 5.4 g/dL
gamma-GTP (100 mg/kg, dose level Low): 0.9 IU/L
TERMINAL_BW (300 mg/kg, dose level Middle): 212.5 g
Bas (300 mg/kg, dose level Middle): 0%
Eos (300 mg/kg, dose level Middle): 0.6%
Hb (300 mg/kg, dose level Middle): 14.2 g/dL
Ht (300 mg/kg, dose level Middle): 43.1%
Lym (300 mg/kg, dose level Middle): 59.2%
MCH (300 mg/kg, dose level Middle): 20.9 pg
MCHC (300 mg/kg, dose level Middle): 32.9%
MCV (300 mg/kg, dose level Middle): 63.4 fL
Mono (300 mg/kg, dose level Middle): 3.2%
Neu (300 mg/kg, dose level Middle): 36.2%
Plat (300 mg/kg, dose level Middle): 115.8 x10_4/uL
RBC (300 mg/kg, dose level Middle): 680.2 x10_4/ul
Ret (300 mg/kg, dose level Middle): 7.6%
WBC (300 mg/kg, dose level Middle): 67.6 x10_2/uL
KIDNEY_L (300 mg/kg, dose level Middle): 1 g
KIDNEY_R (300 mg/kg, dose level Middle): 1 g
KIDNEY_TOTAL (300 mg/kg, dose level Middle): 1.9 g
LIVER (300 mg/kg, dose level Middle): 8.7 g
A/G (300 mg/kg, dose level Middle): 1.2
ALP (300 mg/kg, dose level Middle): 1483.8 IU/L
ALT (300 mg/kg, dose level Middle): 94.6 IU/L
AST (300 mg/kg, dose level Middle): 245.8 IU/L
BUN (300 mg/kg, dose level Middle): 15 mg/dL
CRE (300 mg/kg, dose level Middle): 0.2 mg/dL
Ca (300 mg/kg, dose level Middle): 10.7 mg/dL
Cl (300 mg/kg, dose level Middle): 101.9 meq/L
DBIL (300 mg/kg, dose level Middle): 0.038 mg/dL
GLC (300 mg/kg, dose level Middle): 172.6 mg/dL
IP (300 mg/kg, dose level Middle): 8.1 mg/dL
K (300 mg/kg, dose level Middle): 4.1 meq/L
LDH (300 mg/kg, dose level Middle): 426 IU/L
Na (300 mg/kg, dose level Middle): 140.4 meq/L
PL (300 mg/kg, dose level Middle): 115.4 mg/dL
RALB (300 mg/kg, dose level Middle): 3 g/dL
TBIL (300 mg/kg, dose level Middle): 0.064 mg/dL
TC (300 mg/kg, dose level Middle): 60.8 mg/dL
TG (300 mg/kg, dose level Middle): 31.5 mg/dL
TP (300 mg/kg, dose level Middle): 5.5 g/dL
gamma-GTP (300 mg/kg, dose level Middle): 1 IU/L
TERMINAL_BW (600 mg/kg, dose level High): 197.8 g
Bas (600 mg/kg, dose level High): 0%
Eos (600 mg/kg, dose level High): 1%
Hb (600 mg/kg, dose level High): 14.9 g/dL
Ht (600 mg/kg, dose level High): 44.9%
Lym (600 mg/kg, dose level High): 35%
MCH (600 mg/kg, dose level High): 20.6 pg
MCHC (600 mg/kg, dose level High): 33.3%
MCV (600 mg/kg, dose level High): 61.9 fL
Mono (600 mg/kg, dose level High): 2.4%
Neu (600 mg/kg, dose level High): 61.8%
Plat (600 mg/kg, dose level High): 103.6 x10_4/uL
RBC (600 mg/kg, dose level High): 727.4 x10_4/ul
Ret (600 mg/kg, dose level High): 7.5%
WBC (600 mg/kg, dose level High): 51.6 x10_2/uL
KIDNEY_L (600 mg/kg, dose level High): 0.9 g
KIDNEY_R (600 mg/kg, dose level High): 0.9 g
KIDNEY_TOTAL (600 mg/kg, dose level High): 1.8 g
LIVER (600 mg/kg, dose level High): 7.9 g
A/G (600 mg/kg, dose level High): 1.1
ALP (600 mg/kg, dose level High): 1527.2 IU/L
ALT (600 mg/kg, dose level High): 100.4 IU/L
AST (600 mg/kg, dose level High): 304 IU/L
BUN (600 mg/kg, dose level High): 13.9 mg/dL
CRE (600 mg/kg, dose level High): 0.1 mg/dL
Ca (600 mg/kg, dose level High): 10.5 mg/dL
Cl (600 mg/kg, dose level High): 101.5 meq/L
DBIL (600 mg/kg, dose level High): 0.022 mg/dL
GLC (600 mg/kg, dose level High): 174.4 mg/dL
IP (600 mg/kg, dose level High): 8 mg/dL
K (600 mg/kg, dose level High): 4.2 meq/L
LDH (600 mg/kg, dose level High): 476.8 IU/L
Na (600 mg/kg, dose level High): 139.4 meq/L
PL (600 mg/kg, dose level High): 105 mg/dL
RALB (600 mg/kg, dose level High): 3.1 g/dL
TBIL (600 mg/kg, dose level High): 0.044 mg/dL
TC (600 mg/kg, dose level High): 56.2 mg/dL
TG (600 mg/kg, dose level High): 25.4 mg/dL
TP (600 mg/kg, dose level High): 5.7 g/dL
gamma-GTP (600 mg/kg, dose level High): 1.1 IU/L

From ChEMBL document CHEMBL3885861, “Open TG-GATES”
